{
  "source": "ChEMBL document CHEMBL6096719",
  "about": "“Kidney Targeting Smart Antibiotic Discovery: Multimechanism Pleuromutilins for Pyelonephritis Therapy” (J Med Chem, 2025)",
  "key": {"[1]": {"target": "Solute carrier family 22 member 1 (Homo sapiens, UniProt O15245)", "sequence (O15245 whole entry)": "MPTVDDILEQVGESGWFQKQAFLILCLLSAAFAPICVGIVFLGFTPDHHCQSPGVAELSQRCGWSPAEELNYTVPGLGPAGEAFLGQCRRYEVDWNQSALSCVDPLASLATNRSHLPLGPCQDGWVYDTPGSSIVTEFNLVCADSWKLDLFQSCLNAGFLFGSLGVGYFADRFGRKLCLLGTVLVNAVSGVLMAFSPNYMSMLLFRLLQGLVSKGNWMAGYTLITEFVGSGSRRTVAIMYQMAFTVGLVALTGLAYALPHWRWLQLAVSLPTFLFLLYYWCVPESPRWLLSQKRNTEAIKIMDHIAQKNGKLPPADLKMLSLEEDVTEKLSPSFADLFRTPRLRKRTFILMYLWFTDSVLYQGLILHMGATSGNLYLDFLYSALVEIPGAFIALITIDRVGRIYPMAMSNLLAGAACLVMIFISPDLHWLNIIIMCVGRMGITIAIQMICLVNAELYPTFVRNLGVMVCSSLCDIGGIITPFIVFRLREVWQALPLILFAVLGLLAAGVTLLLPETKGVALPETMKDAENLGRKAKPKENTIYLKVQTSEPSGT", "test": "Inhibition of human OCT1 transfected in HEK293 cells assessed as decrease in intracellular ASP accumulation at 200 uM incubated for 10 mins followed by incubation with ASP for 5 mins by fluorescence based analysis", "assay_type": "cell-based", "details": "hek293, 0.25 h, time 15 min; call rule not given here"}, "[2]": {"target": "T1, Solute carrier family 22 member 2 (Homo sapiens, UniProt O15244)", "T1 sequence (O15244 whole entry)": "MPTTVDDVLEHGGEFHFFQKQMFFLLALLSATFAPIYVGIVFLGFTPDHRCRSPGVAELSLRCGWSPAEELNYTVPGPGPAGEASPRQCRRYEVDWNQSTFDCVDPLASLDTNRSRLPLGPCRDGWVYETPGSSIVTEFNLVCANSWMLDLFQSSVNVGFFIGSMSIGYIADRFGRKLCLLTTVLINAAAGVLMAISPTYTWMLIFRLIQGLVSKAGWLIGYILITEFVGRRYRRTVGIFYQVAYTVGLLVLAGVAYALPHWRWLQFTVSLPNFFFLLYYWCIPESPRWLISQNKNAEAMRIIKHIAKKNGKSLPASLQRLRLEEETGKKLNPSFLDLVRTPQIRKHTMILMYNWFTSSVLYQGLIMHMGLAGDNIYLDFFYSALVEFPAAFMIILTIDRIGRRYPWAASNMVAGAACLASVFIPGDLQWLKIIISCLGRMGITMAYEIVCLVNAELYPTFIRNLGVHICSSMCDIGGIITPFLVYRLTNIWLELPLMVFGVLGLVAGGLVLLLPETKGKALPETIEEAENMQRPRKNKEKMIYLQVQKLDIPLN", "test": "Inhibition of human OCT2 transfected in HEK293 cells assessed as decrease in intracellular ASP accumulation at 100 uM incubated for 10 mins followed by incubation with ASP for 5 mins by fluorescence based analysis", "assay_type": "cell-based", "details": "hek293, 0.25 h, time 15 min"}},
  "data": [
    {"smiles": "CN(C)CCC=C1c2ccccc2CCc2ccccc21", "note": "[AMITRIPTYLINE]", "values": [
      {"measurement": "inhibition (INH)", "setting": "[1]", "value": "Active"},
      {"measurement": "inhibition (INH)", "setting": "[2]", "value": "Active"}
    ]}
  ]
}
